Assay results reported in patent US9315539B2 (YALE UNIVERSITY, priority 2002, dated 2016).
Entries after “also recorded” stand apart in the source; their conditions may differ.

Legend:
Ishikawa cell [1] = assay: Agonist/antagonist character of the analogs (Tables 1 and 2); assay type: cell-based; conditions: estrogen agonism or antagonism, assay not named in the tables
Excerpt: From the estrogen competition assay, we expected that the methyl and ethyl esters, E11-2,1 and E11-2,2 would have relatively high activity in the estrogen potency assay, induction of alkaline phosphatase in Ishikawa cells. However, the results were quite unexpected (see FIG. 5, attached). […] We had never previously seen this disparity between estrogen receptor binding and biological activity. It occurred to us that we were observing the results that would obtained with a SERM and that E11-2,2 was in fact an antiestrogen. Consequently, we repeated the Ishikawa assay as an antiestrogenic assay (the assay is run in the presence of specified amounts of estradiol). […] We continued our synthesis of various analogs in order to define the chemical characteristics that lead to antiestrogenic effects. […] In this regard, several compounds are described with a 17α-ethynyl group in order to protect the C-17 hydroxyl from biological oxidation.

estrogen receptor = target: T1, estrogen receptor (Homo sapiens, UniProt P03372); assay: Estrogen receptor competition assay (relative binding affinity); conditions: estradiol (E2) = 100%
T1 sequence (P03372 1-595): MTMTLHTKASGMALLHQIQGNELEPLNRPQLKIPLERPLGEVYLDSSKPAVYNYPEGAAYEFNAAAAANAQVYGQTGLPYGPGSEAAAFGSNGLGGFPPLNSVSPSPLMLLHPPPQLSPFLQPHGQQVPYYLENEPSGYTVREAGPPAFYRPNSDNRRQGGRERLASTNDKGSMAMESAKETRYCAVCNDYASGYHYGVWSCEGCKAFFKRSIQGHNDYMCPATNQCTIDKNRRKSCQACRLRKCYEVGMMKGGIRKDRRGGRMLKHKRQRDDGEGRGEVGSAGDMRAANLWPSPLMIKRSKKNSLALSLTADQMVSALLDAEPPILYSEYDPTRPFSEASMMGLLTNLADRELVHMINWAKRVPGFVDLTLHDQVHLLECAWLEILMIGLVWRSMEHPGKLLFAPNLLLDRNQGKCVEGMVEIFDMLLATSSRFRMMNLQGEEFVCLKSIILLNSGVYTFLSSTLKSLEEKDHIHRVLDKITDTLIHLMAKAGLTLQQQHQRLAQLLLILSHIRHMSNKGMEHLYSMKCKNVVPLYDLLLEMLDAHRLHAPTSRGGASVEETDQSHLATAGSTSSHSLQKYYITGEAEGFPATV

Ishikawa cell [2] = assay: Antiestrogen Ishikawa cell assay (run in the presence of estradiol); assay type: cell-based; conditions: for antiestrogenic activity (in words): inhibition of estradiol-stimulated alkaline phosphatase
Excerpt: (§1) From the estrogen competition assay, we expected that the methyl and ethyl esters, E11-2,1 and E11-2,2 would have relatively high activity in the estrogen potency assay, induction of alkaline phosphatase in Ishikawa cells. However, the results were quite unexpected (see FIG. 5, attached). […] We had never previously seen this disparity between estrogen receptor binding and biological activity. It occurred to us that we were observing the results that would obtained with a SERM and that E11-2,2 was in fact an antiestrogen. Consequently, we repeated the Ishikawa assay as an antiestrogenic assay (the assay is run in the presence of specified amounts of estradiol).

Ishikawa cells = assay: Ishikawa estrogenic potency assay, induction of alkaline phosphatase; assay type: cell-based; conditions: for estrogenic activity (in words): induction of alkaline phosphatase in Ishikawa cells; for relative stimulatory activity (RSA): induction of alkaline phosphatase, estradiol set at 100%
Excerpt: as §1, with “Ishikawa Estrogenic Potency Assay From” for “From”

[3] = test system: uterotrophic action of estradiol; assay: In vivo uterotrophic assay, antiestrogenic action; design: species or system rat; conditions: immature female rats; for effect on uterotrophic action of estradiol: 20 ng estradiol
Description: In Vivo Uterotropic Activity
The analogs were administered concurrently in the same oil.

C#CC1(O)CCC2C3CCc4cc(O)ccc4C3C(CCCOC(C)C)CC21C (stereo not drawn) [17α-ethynyl-E11-3,iPr ether]
agonist / antagonist character (Ishikawa cell [1]): very strong antagonist

C#CC1(O)CCC2C3CCc4cc(O)ccc4C3C(CCCOC(C)(C)C)CC21C (stereo not drawn) [17α-ethynyl-E11-3,tBu ether]
agonist / antagonist character (Ishikawa cell [1]): very strong antagonist

CC(=O)OC[C@H]1C[C@]2(C)[C@@H](O)CC[C@H]2[C@@H]2CCc3cc(O)ccc3[C@@H]12 [E11-1,2Rev]
agonist / antagonist character (Ishikawa cell [1]): agonist

CCOCC1CC2(C)C(O)CCC2C2CCc3cc(O)ccc3C12 (centres unmarked) [E11-1,2ether]
agonist / antagonist character (Ishikawa cell [1]): agonist

CCCOCC1CC2(C)C(O)CCC2C2CCc3cc(O)ccc3C12 (centres unmarked) [E11-1,3ether]
agonist / antagonist character (Ishikawa cell [1]): strong antagonist

C[C@]12C[C@H](CC(=O)O)[C@@H]3c4ccc(O)cc4CC[C@H]3[C@@H]1CC[C@@H]2O [E11-2,0]
relative binding affinity (RBA) (estrogen receptor): 0.3% | antiestrogenic activity (in words) (Ishikawa cell [2]): neither E11-2,1 nor E11-2,0 showed any antiestrogenic activity | estrogenic activity (in words) (Ishikawa cells): more active than E11-2,2

COC(=O)C[C@H]1C[C@]2(C)[C@@H](O)CC[C@H]2[C@@H]2CCc3cc(O)ccc3[C@@H]12 [E11-2,1]
relative binding affinity (RBA) (estrogen receptor): 24% | antiestrogenic activity (in words) (Ishikawa cell [2]): neither E11-2,1 nor E11-2,0 showed any antiestrogenic activity | agonist / antagonist character (Ishikawa cell [1]): estrogen | relative stimulatory activity (RSA) (Ishikawa cells): 16%

COCCC1CC2(C)C(O)CCC2C2CCc3cc(O)ccc3C12 (centres unmarked) [E11-2,1ether]
agonist / antagonist character (Ishikawa cell [1]): agonist/slight antagonist

CC(=O)OCC[C@H]1C[C@]2(C)[C@@H](O)CC[C@H]2[C@@H]2CCc3cc(O)ccc3[C@@H]12 [E11-2,2Rev]
agonist / antagonist character (Ishikawa cell [1]): agonist

CCOC(=O)C[C@H]1C[C@]2(C)[C@@H](O)CC[C@H]2[C@@H]2CCc3cc(O)ccc3[C@@H]12 [E11-2,2]
effect on uterotrophic action of estradiol ([3]; 3 μg analog): partially active | effect on uterotrophic action of estradiol ([3]; 10 μg analog): completely abolished the effect of 20 ng estradiol | effect on uterotrophic action of estradiol (uterine weight) ([3]; 100 μg analog, 50 ng estradiol, FIG. 7): inhibiting the action of 50 ng of estradiol | relative binding affinity (RBA) (estrogen receptor): 45% | antiestrogenic activity (in words) (Ishikawa cell [2]): inhibited the estrogenic stimulation of alkaline phosphatase in the Ishikawa cell, with very high potency | Ki (Ishikawa cell [2]; inhibition of estrogenic stimulation of alkaline phosphatase, several assays): 1 to 2 nM | agonist / antagonist character (Ishikawa cell [1]): antiestrogen; also recorded: strong antagonist | estrogenic activity (in words) (Ishikawa cells): almost inactive

CCOCCC1CC2(C)C(O)CCC2C2CCc3cc(O)ccc3C12 (centres unmarked) [E11-2,2ether]
inhibition of the effect of estradiol ([3]; 30 μg analog): about 50% | agonist / antagonist character (Ishikawa cell [1]): strong antagonist

CCCOC(=O)C[C@H]1C[C@]2(C)[C@@H](O)CC[C@H]2[C@@H]2CCc3cc(O)ccc3[C@@H]12 [E11-2,3]
agonist / antagonist character (Ishikawa cell [1]): strong antagonist

CCCOCCC1CC2(C)C(O)CCC2C2CCc3cc(O)ccc3C12 (centres unmarked) [E11-2,3ether]
agonist / antagonist character (Ishikawa cell [1]): strong antagonist

CC(C)OC(=O)C[C@H]1C[C@]2(C)[C@@H](O)CC[C@H]2[C@@H]2CCc3cc(O)ccc3[C@@H]12 [E11-2,3i]
agonist / antagonist character (Ishikawa cell [1]): strong antagonist

CCCCOC(=O)C[C@H]1C[C@]2(C)[C@@H](O)CC[C@H]2[C@@H]2CCc3cc(O)ccc3[C@@H]12 [E11-2,4]
agonist / antagonist character (Ishikawa cell [1]): strong antagonist

CC(C)(C)COC(=O)C[C@H]1C[C@]2(C)[C@@H](O)CC[C@H]2[C@@H]2CCc3cc(O)ccc3[C@@H]12 [E11-2,5neo]
agonist / antagonist character (Ishikawa cell [1]): antagonist

C[C@]12C[C@H](CCOC3CCCC3)[C@@H]3c4ccc(O)cc4CC[C@H]3[C@@H]1CC[C@@H]2O [E11-2,cyclo-Pent ether]
agonist / antagonist character (Ishikawa cell [1]): extremely strong antagonists; also recorded: very strong antagonist

C[C@]12C[C@H](CCOC3CC3)[C@@H]3c4ccc(O)cc4CC[C@H]3[C@@H]1CC[C@@H]2O [E11-2,cyclo-Pr ether]
agonist / antagonist character (Ishikawa cell [1]): strong antagonist

CC(C)OCCC1CC2(C)C(O)CCC2C2CCc3cc(O)ccc3C12 (centres unmarked) [E11-2,iPr ether]
agonist / antagonist character (Ishikawa cell [1]): strong antagonist

CC(C)(C)OCCC1CC2(C)C(O)CCC2C2CCc3cc(O)ccc3C12 (centres unmarked) [E11-2,tBu ether]
agonist / antagonist character (Ishikawa cell [1]): very weak antagonist

CCC(=O)C[C@H]1C[C@]2(C)[C@@H](O)CC[C@H]2[C@@H]2CCc3cc(O)ccc3[C@@H]12 [E11-2K2]
agonist / antagonist character (Ishikawa cell [1]): weak agonist

CCCC(=O)C[C@H]1C[C@]2(C)[C@@H](O)CC[C@H]2[C@@H]2CCc3cc(O)ccc3[C@@H]12 [E11-2K3]
effect on uterotrophic response of estradiol ([3]; 30 μg analog): completely abolished the uterotrophic response of estradiol | agonist / antagonist character (Ishikawa cell [1]): antagonist

CCOC(=S)C[C@H]1C[C@]2(C)[C@@H](O)CC[C@H]2[C@@H]2CCc3cc(O)ccc3[C@@H]12 [E11-2S2]
agonist / antagonist character (Ishikawa cell [1]): antagonist | agonist / antagonist character (Ishikawa cell [1]; listed as E11-2S,2): strong antagonist

COCCCC1CC2(C)C(O)CCC2C2CCc3cc(O)ccc3C12 (centres unmarked) [E11-3,1 ether]
agonist / antagonist character (Ishikawa cell [1]): antagonist

COC(=O)CC[C@H]1C[C@]2(C)[C@@H](O)CC[C@H]2[C@@H]2CCc3cc(O)ccc3[C@@H]12 [E11-3,1]
agonist / antagonist character (Ishikawa cell [1]): antagonist

CCOCCCC1CC2(C)C(O)CCC2C2CCc3cc(O)ccc3C12 (centres unmarked) [E11-3,2 ether]
agonist / antagonist character (Ishikawa cell [1]): strong antagonist

CC12CC(CCCOCCF)C3c4ccc(O)cc4CCC3C1CCC2O (centres unmarked) [E11-3,2F1 ether]
agonist / antagonist character (Ishikawa cell [1]): strong antagonist

CC(=O)OCCC[C@H]1C[C@]2(C)[C@@H](O)CC[C@H]2[C@@H]2CCc3cc(O)ccc3[C@@H]12 [E11-3,2Rev]
agonist / antagonist character (Ishikawa cell [1]): antagonist

CC(C)OCCCC1CC2(C)C(O)CCC2C2CCc3cc(O)ccc3C12 (centres unmarked) [E11-3,iPr ether]
agonist / antagonist character (Ishikawa cell [1]): strong antagonist

CC(C)(C)C(=O)OCCC[C@H]1C[C@]2(C)[C@@H](O)CC[C@H]2[C@@H]2CCc3cc(O)ccc3[C@@H]12 [E11-3,piv Rev]
agonist / antagonist character (Ishikawa cell [1]): antagonist

CC(C)(C)OCCCC1CC2(C)C(O)CCC2C2CCc3cc(O)ccc3C12 (centres unmarked) [E11-3,tBu ether]
agonist / antagonist character (Ishikawa cell [1]): extremely strong antagonists; also recorded: very strong antagonist

C[C@]12CC[C@@H]3c4ccc(O)cc4CC[C@H]3[C@@H]1CCC2=O [estrone, reference compound]
relative stimulatory activity (RSA) (Ishikawa cells): 4%
